Columns and labels:
HeLa cells = assay: In vivo nuclear export assay, Rev(1.4)-GFP; assay type: cell-based; conditions: Rev(1.4)-NPMcNES-GFP in HeLa cells, actinomycin D, >200 cells per sample
Text: The clone of Myc3 tagged human NPM in pCDNA3.1 for eukaryotic expression was kindly provided by Dr. Yanping Zhang (University of Texas). From this clone, we used PCR to generate the AML-associated mutants A and E [27], by incorporating the mutations in the 3´oligonucleotide. The three NPM variants (wild type, A and E) were subcloned as YFP-NPM fusions into pEYFP-C1. The plasmid encoding YFP-CRM1 has been previously described, and pEYFP-C1 was used as its corresponding negative control. As a positive control in cell localization assays, a previously described plasmid encoding Flag-tagged Survivin fused to a heterologous NLS (“SurvNLS”) was used. To test the export activity of a novel putative NES in the C-terminal domain of wild type NPM, a DNA fragment encoding residues 264–282 was cloned into the plasmid Rev (1.4)-GFP (a gift of Dr. Beric Henderson, University of Sydney), as previously described.
The export activity of a novel putative NES in the C-terminal domain of NPM was tested using an established in vivo nuclear export assay in HeLa cells (see Supporting Information for further experimental details).
Supplementary file pone.0130610.s001.tif: S1 Fig A novel candidate NES (cNES) in NPM is not active in a nuclear export assay. […] Fluorescence microscopy images in panel B show the localization of the different proteins. […] More than 200 cells were counted per sample. […]

CRM1^HA = target: T1, CRM1^HA (Mus musculus, UniProt Q6P5F9, L431A/V430A/V432A); assay: Size exclusion chromatography of NPM / CRM1^HA complex formation; assay type: binding
T1 construct: His-ZZ (cleaved yes); made in house; host or cells: Escherichia coli BL21-CodonPlus (DE3)
Description: Chromatography-based binding experiments
[…] Then 100 μL were loaded onto a Superdex 200 10/30 column (GE Healthcare), equilibrated in buffer 20 mM Tris/HCl, pH 7.4, 100 mM NaCl, 5 mM DTT, 2 mM MgCl2. Runs were performed at 15°C and a flow rate of 0.2 mL / min. The eluted fractions were analyzed by SDS-PAGE. TFP-NES/CRM1^HA complex formation was also tested by Ni-NTA chromatography (see Supporting Information).
Fig 3 Native-like properties of CRM1^HA “high affinity” mutant and formation of complexes between this CRM1 variant and AML-related NPM mutants. (A) Circular dichroism thermal denaturation profiles of wild type CRM1 and CRM1^HA, followed by ellipticity at 222 nm as a function of temperature. […] When evaluating the relative amounts of the complex and free NPM, one should take into account that absorbance at 280 nm is lower for the mutants (especially NPMmutA) than for wild type NPM, since wild type NPM contains two Trp residues per subunit, NPMmutE one, and NPMmutA none. […] They are detected in the fractions containing the complex probably due to formation of mixed oligomers with the full length species and/or incomplete resolution from free NPM. […]

T1 sequence (Q6P5F9 1-1062 V430A/L431A/V432A limits assumed): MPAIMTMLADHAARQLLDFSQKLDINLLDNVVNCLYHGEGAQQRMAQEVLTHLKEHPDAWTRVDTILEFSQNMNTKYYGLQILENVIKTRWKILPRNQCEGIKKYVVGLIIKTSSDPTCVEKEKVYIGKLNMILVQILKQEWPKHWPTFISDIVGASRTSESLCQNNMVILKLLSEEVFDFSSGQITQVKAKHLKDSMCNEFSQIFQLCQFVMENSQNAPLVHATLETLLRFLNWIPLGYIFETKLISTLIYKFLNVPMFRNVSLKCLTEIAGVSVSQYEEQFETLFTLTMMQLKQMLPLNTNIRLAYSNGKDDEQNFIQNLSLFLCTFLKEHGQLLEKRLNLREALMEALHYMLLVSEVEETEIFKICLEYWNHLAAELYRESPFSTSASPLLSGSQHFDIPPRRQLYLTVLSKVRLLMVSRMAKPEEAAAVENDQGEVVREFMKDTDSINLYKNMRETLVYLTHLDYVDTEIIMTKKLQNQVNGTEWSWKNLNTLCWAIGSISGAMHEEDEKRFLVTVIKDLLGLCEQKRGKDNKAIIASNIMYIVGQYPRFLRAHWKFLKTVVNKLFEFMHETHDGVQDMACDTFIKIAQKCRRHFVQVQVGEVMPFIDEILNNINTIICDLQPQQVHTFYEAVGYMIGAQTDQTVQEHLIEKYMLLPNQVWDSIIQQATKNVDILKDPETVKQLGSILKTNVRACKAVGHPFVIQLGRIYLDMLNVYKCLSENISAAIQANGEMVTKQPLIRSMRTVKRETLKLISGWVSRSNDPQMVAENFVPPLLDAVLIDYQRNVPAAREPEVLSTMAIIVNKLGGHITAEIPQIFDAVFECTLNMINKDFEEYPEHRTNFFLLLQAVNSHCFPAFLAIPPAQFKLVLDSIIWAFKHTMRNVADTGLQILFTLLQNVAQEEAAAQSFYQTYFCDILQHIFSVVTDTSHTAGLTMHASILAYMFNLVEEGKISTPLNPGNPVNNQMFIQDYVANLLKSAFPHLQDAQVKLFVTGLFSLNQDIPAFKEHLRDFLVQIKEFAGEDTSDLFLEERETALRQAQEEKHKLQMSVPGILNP

| Substance | nuclear export activity (HeLa cells) | nuclear export activity (HeLa cells; listed as 268-FINYVKNCFRM-278) | complex formation with CRM1^HA (CRM1^HA; SEC Superdex 200, 20 μM (pentamer) NPM + 40 μM CRM1^HA, 30 min room temperature, run at 15°C, 20 mM Tris/HCl pH 7.4, 100 mM NaCl, mutant preparations partly C-terminally degraded) | complex formation with CRM1^HA (CRM1^HA; SEC, 40 μM NPM + 140 μM CRM1^HA (data not shown)) |
| --- | --- | --- | --- | --- |
| VEAKFINYVKNCFRMTDQE [NPM cNES, candidate NES in C-terminal domain of NPM, tested as Rev(1.4)-GFP fusion] | not functional as a nuclear export signal | inactive |  |  |
| wild type NPM: nucleophosmin, pentameric nucleolar protein |  |  | did not result in any complex stable enough as to be detected by SEC | failed to produce any detectable complex |

Reference: PMC4474691, “Leukemia-Associated Mutations in Nucleophosmin Alter Recognition by CRM1: Molecular Basis of Aberrant Transport” (PLoS ONE, 2015)
